# According to the supplement of paper PMC13380429:
# Assays:
# Conditions in all cases: 72 h
# [1] = tested on: HepG2; assay: drug sensitivity score (DSS) for viability; higher = more toxic; extreme values may be limits of the assay
# [2] = tested on: Caco-2; assay: as above
# [3] = tested on: U2OS; assay: as above
# [4] = tested on: Calu-3; assay: as above
# [5] = tested on: Vero E6; assay: as above
# [6] = tested on: HepG2; assay: cell viability relative to DMSO; higher = less toxic
# [7] = tested on: Caco-2; assay: as above
# [8] = tested on: U2OS; assay: as above
# [9] = tested on: Calu-3; assay: as above
# [10] = tested on: Vero E6; assay: as above
# [11] = tested on: HepG2; assay: relative viability EC50 (midpoint between 100% and the lowest measured viability); higher = less toxic
# [12] = tested on: Caco-2; assay: as above
# [13] = tested on: U2OS; assay: as above
# [14] = tested on: Calu-3; assay: as above
# [15] = tested on: Vero E6; assay: as above
Structure (SMILES),drug sensitivity score [1],drug sensitivity score [2],drug sensitivity score [3],drug sensitivity score [4],drug sensitivity score [5],cell viability ([6]; 1 nM),cell viability ([6]; 10 nM),cell viability ([6]; 100 nM),cell viability ([6]; 1000 nM),cell viability ([6]; 10000 nM),cell viability ([7]; 1 nM),cell viability ([7]; 10 nM),cell viability ([7]; 100 nM),cell viability ([7]; 1000 nM),cell viability ([7]; 10000 nM),cell viability ([8]; 1 nM),cell viability ([8]; 10 nM),cell viability ([8]; 100 nM),cell viability ([8]; 1000 nM),cell viability ([8]; 10000 nM),cell viability ([9]; 1 nM),cell viability ([9]; 10 nM),cell viability ([9]; 100 nM),cell viability ([9]; 1000 nM),cell viability ([9]; 10000 nM),cell viability ([10]; 1 nM),cell viability ([10]; 10 nM),cell viability ([10]; 100 nM),cell viability ([10]; 1000 nM),cell viability ([10]; 10000 nM),relative viability EC50 [11],relative viability EC50 [12],relative viability EC50 [13],relative viability EC50 [14],relative viability EC50 [15]
C[C@]12CC[C@H](O)CC1=CC[C@@H]1[C@@H]2CC[C@]2(C)C(=O)CC[C@@H]12 [PRASTERONE],0,0,0,0,0,104%,101%,94.2%,92.3%,92.2%,96.8%,99.4%,91.4%,100%,92.6%,97.4%,102%,102%,97.5%,100%,94.9%,81.2%,98.3%,96.6%,108%,99.5%,101%,98.7%,98.7%,95.2%,> 10 µM,> 10 µM,> 10 µM,> 10 µM,> 10 µM
CC(C)NCCCn1c(Sc2cc3c(cc2I)OCO3)nc2c(N)ncnc21 [PU-H71],20.8,6.2,12.9,8.5,4.9,101%,95.3%,82.8%,0.3%,0.4%,89.9%,104%,106%,74%,47.1%,94.4%,97.5%,95.6%,37.8%,3.8%,97.7%,107%,100%,55.3%,41.1%,102%,105%,105%,92.8%,33.2%,0.186 µM,1.02 µM,0.686 µM,0.634 µM,2.27 µM
CCc1nc2ccc(Cl)cn2c1C(=O)NCc1ccc(N2CCC(c3ccc(OC(F)(F)F)cc3)CC2)cc1 [Q-203],0.1,0.1,0,0,0,106%,108%,92.1%,100%,86.8%,97.3%,95.9%,97.1%,93.5%,85.3%,98.6%,101%,97.8%,97.4%,99.8%,99.7%,100%,104%,99.6%,104%,107%,100%,99.9%,98.8%,96.5%,> 10 µM,> 10 µM,> 10 µM,> 10 µM,> 10 µM
CN1Cc2c(C(=O)OC(C)(C)C)ncn2-c2ccsc2C1=O [Ro-19-4605],0,0,0,0,0,105%,96.9%,115%,96.6%,108%,98.8%,102%,101%,100%,103%,94.5%,92.8%,95.4%,102%,97.2%,96.9%,98%,89%,103%,99.3%,101%,96.4%,103%,96.8%,103%,> 10 µM,> 10 µM,> 10 µM,> 10 µM,> 10 µM
Cc1cc(C)cc(NC(=O)Nc2ccc(OS(N)(=O)=O)cc2)c1 [S4],0,0,0,0,0,107%,99.3%,104%,108%,97.2%,105%,97.6%,99.3%,87.4%,101%,102%,96.9%,100%,98.1%,99%,104%,104%,92.7%,100%,89.5%,102%,103%,103%,103%,96.6%,> 10 µM,> 10 µM,> 10 µM,> 10 µM,> 10 µM
CN1CCC[C@@H]1CCSc1ccc(O)cc1 [SIB-1553A],0,0,0,0,0,95%,88.9%,95.4%,88.1%,111%,94.4%,100%,99.7%,102%,105%,97.9%,101%,97.1%,101%,106%,98.7%,103%,98.6%,91.6%,99.3%,106%,95.7%,97.5%,96%,104%,> 10 µM,> 10 µM,> 10 µM,> 10 µM,> 10 µM
C=CCNc1ncnc2ccc(Br)cc12 [SMER-28],0.6,0,0,0.4,0,92.3%,98%,102%,102%,78.8%,99.5%,93.4%,98.7%,103%,91.2%,101%,97%,102%,96.9%,101%,101%,103%,96.1%,100%,82.7%,93.6%,98.3%,95.8%,99.8%,101%,> 10 µM,> 10 µM,> 10 µM,> 10 µM,> 10 µM
Cc1nc(-c2cccnc2)sc1C(=O)Nc1ccccc1-c1cn2c(CN3CCOCC3)csc2n1 [SRT2104],0,0,0,0,0,100%,92.8%,98.8%,90.6%,108%,90.6%,92.2%,104%,99.2%,102%,95.5%,104%,94.6%,101%,99.2%,93.6%,98.8%,102%,104%,112%,98%,94.9%,92.9%,90.8%,106%,> 10 µM,> 10 µM,> 10 µM,> 10 µM,> 10 µM
CCS(=O)(=O)c1cccc(-c2cc(C(=O)NC3CCN(C)CC3)c(C)c3[nH]c4ncc(C)cc4c23)c1 [TAK-901],12.7,6.7,8.9,8,1.1,94.1%,104%,76.5%,48.1%,15.7%,98.4%,99.7%,90.4%,72%,36.5%,98.3%,98.5%,98.9%,73.6%,9.3%,108%,100%,95.5%,69.9%,21.3%,105%,100%,100%,97%,78.7%,0.439 µM,1.06 µM,1.43 µM,1.28 µM,> 10 µM
FC(F)(F)c1ccccc1-c1cc(C(F)(F)F)c2[nH]c(C3=NOC4(CCCCC4)C3)nc2c1 [TC-I-2014],0,0,0,0,0,91.6%,103%,97.4%,98.4%,89.3%,91.9%,95.5%,96.8%,93.4%,89.8%,106%,103%,103%,100%,90.7%,112%,105%,97.7%,99.8%,97.7%,95.6%,98.8%,90.1%,94.8%,89.5%,> 10 µM,> 10 µM,> 10 µM,> 10 µM,> 10 µM
CC(C)c1ccccc1Cc1cc(C(=O)Nc2ccc(S(=O)(=O)c3ccccc3C(C)(C)C)cc2)c(O)c(O)c1O [TW-37],10.6,13.1,13,6.2,12,98.8%,98.6%,96.1%,49.6%,20.3%,88.7%,89.7%,93.5%,36.7%,9.2%,102%,94.7%,95.7%,36.5%,4.6%,107%,98.1%,107%,86%,28.8%,92.1%,102%,96.1%,43.2%,7.7%,0.704 µM,0.557 µM,0.654 µM,1.75 µM,0.746 µM
CC(C)C(=O)c1ccc(O)c(O)c1 [U-0521],0,0.5,0,0,0,96.3%,77.3%,109%,114%,105%,98.6%,102%,101%,88%,97%,99.8%,95.4%,100%,97.3%,93.6%,102%,96.9%,102%,94.4%,97.4%,108%,104%,102%,97.6%,92.9%,> 10 µM,> 10 µM,> 10 µM,> 10 µM,> 10 µM
CCCN(CCC)[C@@H]1CCc2c(OC)cccc2[C@@H]1C [UH-232-(+)],0,0,0,0,0,97.7%,103%,87.2%,102%,95.8%,95.6%,100%,97.1%,93.6%,92.7%,108%,106%,104%,101%,99.4%,102%,104%,103%,102%,95%,95.9%,102%,96.5%,101%,100%,> 10 µM,> 10 µM,> 10 µM,> 10 µM,> 10 µM
